Data as given in ChEMBL document CHEMBL3751836, “Novel peptidomimetics related to gonadotropin-releasing hormone (GnRH)” (Medchemcomm, 2015).
Active and inactive are the calls of the source. The calls are words filed in the database; no cut-off is given here.

How the values were obtained:
[1] = target: T1, Gonadotropin-releasing hormone receptor (Homo sapiens) (UniProt P30968); test: (§1) Displacement of [125I]-DTyr6-His5-GnRH from human type 1 GnRH receptor expressed in HEK293 cell membranes after 16 to 19 hrs by gamma counting analysis
T1 sequence (whole entry): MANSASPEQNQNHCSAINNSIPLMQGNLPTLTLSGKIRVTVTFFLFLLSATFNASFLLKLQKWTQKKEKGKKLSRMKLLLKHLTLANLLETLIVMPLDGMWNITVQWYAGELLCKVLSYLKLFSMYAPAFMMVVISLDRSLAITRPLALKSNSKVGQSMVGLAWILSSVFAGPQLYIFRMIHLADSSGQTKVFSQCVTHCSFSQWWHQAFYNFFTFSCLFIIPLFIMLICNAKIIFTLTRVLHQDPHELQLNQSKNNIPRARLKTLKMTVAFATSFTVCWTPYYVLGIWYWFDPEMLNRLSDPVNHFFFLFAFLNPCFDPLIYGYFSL

[2] = target: T2, Gonadotropin-releasing hormone receptor (Homo sapiens, UniProt P30968); test: as §1
T2 sequence (P30968 whole entry): T1 sequence (whole entry)

[3] = Metabolic stability in rat plasma at 100 uM after 4 hrs by HPLC/mass spectrometric analysis relative to GnRH1; format: ADME, cell-free; settings: read-out: Stability
[4] = Metabolic stability in rat plasma assessed as half life at 100 uM by HPLC/mass spectrometric analysis; format: ADME, cell-free
HEK293 = test: Antiproliferative activity against HEK293 cells expressing human type 1 GnRH receptor at 1 uM after 4 days by MTT assay; format: functional, cell-based
[5] = Metabolic stability in rat plasma at 100 uM after 4 hrs by HPLC/mass spectrometric analysis relative to GnRH2; format: ADME, cell-free; settings: read-out: Stability

Row | Activity [1] | IC50 [2] [µM] | remaining at 4 h, 100 µM [3] [%] | half-life at 100 µM [4] [h] | remaining at 4 h, 100 µM [5] [%] | SMILES | Activity (HEK293)
1 | Dose-dependent effect | 0.589 |  |  |  | CC(C)C[C@H](NC(=O)C1(NC(=O)[C@H](Cc2ccc(O)cc2)NC(=O)[C@H](CO)NC(=O)[C@H](Cc2c[nH]c3ccccc23)NC(=O)[C@H](Cc2c[nH]cn2)NC(=O)[C@@H]2CCC(=O)N2)CCCC1)C(=O)N[C@@H](CCCNC(=N)N)C(=O)N1CCC[C@H]1C(=O)NCC(N)=O | 
2 | Dose-dependent effect | 0.191 |  |  |  | NC(=O)CNC(=O)[C@H]1CCCN1C(=O)[C@H](Cc1ccc(O)cc1)NC(=O)[C@H](Cc1c[nH]c2ccccc12)NC(=O)C1(NC(=O)[C@@H](Cc2cnc[nH]2)NC(=O)[C@@H](CO)NC(=O)[C@@H](Cc2c[nH]c3ccccc23)NC(=O)[C@@H](Cc2c[nH]cn2)NC(=O)[C@H]2CCC(=O)N2)CCC1 | 
3 | Dose-dependent effect | 0.282 |  |  |  | NC(=O)CNC(=O)[C@H]1CCCN1C(=O)[C@H](Cc1ccc(O)cc1)NC(=O)[C@H](Cc1c[nH]c2ccccc12)NC(=O)C1(NC(=O)[C@@H](Cc2cnc[nH]2)NC(=O)[C@@H](CO)NC(=O)[C@@H](Cc2c[nH]c3ccccc23)NC(=O)[C@@H](Cc2c[nH]cn2)NC(=O)[C@H]2CCC(=O)N2)CCCC1 | 
4 | Dose-dependent effect | 0.55 | 15 | 3.96 |  | CC(C)C[C@H](NC(=O)C1(NC(=O)[C@H](Cc2ccc(O)cc2)NC(=O)[C@H](CO)NC(=O)[C@H](Cc2c[nH]c3ccccc23)NC(=O)[C@H](Cc2c[nH]cn2)NC(=O)[C@@H]2CCC(=O)N2)CCCCC1)C(=O)N[C@@H](CCCNC(=N)N)C(=O)N1CCC[C@H]1C(=O)NCC(N)=O | 
5 | Dose-dependent effect | 0.407 |  |  | 15 | NC(=O)CNC(=O)[C@@H]1CCCN1C(=O)[C@@H](Cc1ccc(O)cc1)NC(=O)[C@@H](Cc1c[nH]c2ccccc12)NC(=O)C1(NC(=O)[C@H](Cc2cnc[nH]2)NC(=O)[C@H](CO)NC(=O)[C@H](Cc2c[nH]c3ccccc23)NC(=O)[C@H](Cc2c[nH]cn2)NC(=O)[C@@H]2CCC(=O)N2)CCCCC1 | Active
6 |  |  |  | 2.63 |  | CC(C)C[C@H](NC(=O)CNC(=O)[C@H](Cc1ccc(O)cc1)NC(=O)[C@H](CO)NC(=O)[C@H](Cc1c[nH]c2ccccc12)NC(=O)[C@H](Cc1cnc[nH]1)NC(=O)[C@@H]1CCC(=O)N1)C(=O)N[C@@H](CCCNC(=N)N)C(=O)N1CCC[C@H]1C(=O)NCC(N)=O [GONADORELIN] | 
7 |  |  |  |  |  | CCNC(=O)[C@@H]1CCCN1C(=O)[C@H](CCCNC(=N)N)NC(=O)[C@H](CC(C)C)NC(=O)[C@@H](CC(C)C)NC(=O)[C@H](Cc1ccc(O)cc1)NC(=O)[C@H](CO)NC(=O)[C@H](Cc1c[nH]c2ccccc12)NC(=O)[C@H](Cc1c[nH]cn1)NC(=O)[C@@H]1CCC(=O)N1 | Active
8 | Dose-dependent effect | 0.724 |  |  |  | CC(C)C[C@H](NC(=O)CN1CN(c2ccccc2)C2(CCN(C(=O)[C@H](Cc3c[nH]c4ccccc34)NC(=O)[C@H](Cc3c[nH]cn3)NC(=O)[C@@H]3CCC(=O)N3)CC2)C1=O)C(=O)N[C@@H](CCCNC(=N)N)C(=O)N1CCC[C@H]1C(=O)NCC(N)=O | 
